Source: US20260297042A1, “BIARYLAMIDE DERIVATIVES AND THEIR USE AS PKMYT1 INHIBITORS” (CANCER RESEARCH TECHNOLOGY LIMITED, priority 2023, published 2026)

Columns and labels:
Human PKMYT1 = target: T1, Human PKMYT1 (Homo sapiens, UniProt Q99640); test: PKMYT1 biochemical ADP-Glo enzymatic assay; details: ADP-Glo
T1 construct: Human PKMYT1 75-362 was cloned as a TEV cleavable 6xHis fusion; 6xHis (TEV cleavable) (cleaved yes); made in house; host or cells: bacterial cells
T1 sequence (Q99640 75-362): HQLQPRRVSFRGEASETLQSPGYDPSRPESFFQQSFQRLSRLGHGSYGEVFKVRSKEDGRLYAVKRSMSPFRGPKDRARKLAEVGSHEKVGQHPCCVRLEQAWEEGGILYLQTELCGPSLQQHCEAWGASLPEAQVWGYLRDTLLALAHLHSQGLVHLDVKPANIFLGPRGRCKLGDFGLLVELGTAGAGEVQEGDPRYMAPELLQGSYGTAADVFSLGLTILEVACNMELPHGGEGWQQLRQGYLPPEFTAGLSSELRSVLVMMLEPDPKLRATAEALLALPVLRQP
Summary of the method: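 IC50 derived from luminescence (ADP-Glo Max) after PKMYT1 kinase domain, 15 nM, turned over 500 µM ATP for 60 min at 26 °C. Buffer contained 10 mM MgCl2, 1 mM EGTA and 0.01% Brij-35 at pH 7.5.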

WEE1 = target: T2, WEE1 (Homo sapiens, UniProt P30291); test: Selectivity versus WEE1 assay (ADP-Glo enzymatic assay); format: biochemical; details: for IC50: ADP-Glo; for PKMYT1 vs. WEE1 selectivity: fold difference in selectivity for PKMYT1 over WEE1
T2 construct: purchased Thermo Fisher PR7373A
T2 sequence (P30291 whole entry): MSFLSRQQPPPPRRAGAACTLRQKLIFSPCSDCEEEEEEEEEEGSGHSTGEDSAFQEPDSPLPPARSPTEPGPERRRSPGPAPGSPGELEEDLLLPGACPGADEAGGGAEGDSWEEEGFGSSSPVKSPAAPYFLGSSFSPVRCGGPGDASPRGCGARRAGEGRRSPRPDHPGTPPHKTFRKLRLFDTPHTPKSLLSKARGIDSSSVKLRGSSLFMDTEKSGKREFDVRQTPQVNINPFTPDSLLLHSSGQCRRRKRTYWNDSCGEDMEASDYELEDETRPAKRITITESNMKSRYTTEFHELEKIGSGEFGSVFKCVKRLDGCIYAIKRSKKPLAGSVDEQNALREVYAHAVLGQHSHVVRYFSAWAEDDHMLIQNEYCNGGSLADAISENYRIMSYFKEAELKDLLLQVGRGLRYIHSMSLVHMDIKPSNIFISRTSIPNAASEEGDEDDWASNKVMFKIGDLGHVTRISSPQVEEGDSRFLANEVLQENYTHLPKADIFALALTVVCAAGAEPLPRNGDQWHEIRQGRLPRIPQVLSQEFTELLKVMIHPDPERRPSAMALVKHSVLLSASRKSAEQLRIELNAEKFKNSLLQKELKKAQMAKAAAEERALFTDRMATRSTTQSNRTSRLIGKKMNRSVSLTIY
Summary of the method: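 Inhibition is measured as reduced ADP production, detected by luminescence with ADP-Glo, after enzyme (15 nM) and 30 µM ATP react for 60 min at 26° C in 1% DMSO-containing HEPES buffer, pH 7.5. Data are accepted only if replicate IC50s fall within 3-fold and r2 exceeds 0.9.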

[1] = target: T3, Cellular PKMYT1 Biomarker CDK1 pT14 (Homo sapiens, UniProt Q99640); test: Inhibition of cellular PKMYT1 biomarker CDK1 pT14 in OVCAR 3 cells (immunoblot); format: cell-based; details: 20 hours incubation
T3 construct: read-out CDK1 phospho-T14 immunoblot
T3 sequence (Q99640 1-499): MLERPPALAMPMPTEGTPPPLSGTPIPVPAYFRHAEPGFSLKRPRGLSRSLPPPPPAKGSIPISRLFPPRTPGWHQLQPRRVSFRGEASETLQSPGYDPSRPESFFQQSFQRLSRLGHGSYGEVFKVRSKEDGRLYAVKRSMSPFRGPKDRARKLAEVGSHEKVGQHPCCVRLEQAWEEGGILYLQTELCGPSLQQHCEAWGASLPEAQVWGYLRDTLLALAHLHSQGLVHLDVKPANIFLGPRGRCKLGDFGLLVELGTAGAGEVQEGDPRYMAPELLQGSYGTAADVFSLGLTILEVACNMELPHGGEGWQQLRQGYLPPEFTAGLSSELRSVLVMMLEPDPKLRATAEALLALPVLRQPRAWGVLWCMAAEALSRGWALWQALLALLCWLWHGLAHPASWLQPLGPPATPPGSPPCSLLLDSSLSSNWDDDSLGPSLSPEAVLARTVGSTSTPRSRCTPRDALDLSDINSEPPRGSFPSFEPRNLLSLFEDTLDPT
Description: To determine compound PKMYT1 IC50 in a cellular assay, OVCAR 3 cells were incubated at 37° C. in 5% CO2 atmosphere. The cells were maintained in RPMI medium supplemented with 20% foetal bovine serum, 1X non essential amino acids, 1 mM sodium pyruvate, Glutamax and insulin. Cells were seeded into 12-well plates at low density (50,000-200,000 cells per well), grown to confluence (~350-400,000 cells per well) and then treated with a range of concentrations of PKMYT1 inhibitors. The cells were incubated 20 hours and then harvested into 1X Laemmli Sample Buffer (BIORAD) without 2-mercaptoethanol, heated to 95° C. for 5 min, centrifuged and sonicated using a microprobe for 15 sec, 21W to shear the DNA.
The samples were analysed by immunoblot on a Jess Automated Western Blot System (BioTechne). The samples were separated using the 12-230 kDa Separation Module (BioTechne,) and blotted using an anti-CDK1 phospho T14 antibody (Abcam, #ab58509) and an anti-vinculin antibody (Abcam, #126002). Specific binding was detected by fluorescence using the Anti-Rabbit Detection Module (BioTechne, #DM-001), quantified using Compass for Simple Western software, and IC50 values were calculated by regression analysis in GraphPad Prism.

OVCAR 3 cells = test: Cancer cell line proliferation assay, ATP-based cell viability (Cell Titre Glow), OVCAR 3 (CCNE1-amplified); details: KYSE30 (normal CCNE1) GI50 vs. OVCAR 3 (CCNE1-amplified) GI50
Summary of the method: (§1)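 Sensitivity to PKMYT1 inhibitors was measured by ATP-based luminescence (CellTiter-Glo) as the proliferation endpoint. GI50, the concentration giving 50% growth inhibition, was estimated from curve fits.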

KYSE-30 cells = test: Cancer cell line proliferation assay, ATP-based cell viability (Cell Titre Glow), KYSE-30 (normal CCNE1); details: Homo sapiens, KYSE-30 cells (normal CCNE1), concentration that achieves 50% cell growth proliferation inhibition, read-out: KYSE30 Gl50
Summary of the method: as §1

[2] = PKMYT1 kinase domain 15 nM, banded values

| Compound | IC50 (Human PKMYT1; 15 nM PKMYT1 kinase domain, 500 µM ATP, 60 minutes at 26° C., banded) | IC50 (WEE1; 15 nM WEE1, 60 minutes at 26° C., banded) | PKMYT1 vs. WEE1 selectivity (WEE1; banded, ">N" = at least in this band but could be higher) | IC50 [1] | IC50 (Human PKMYT1; [2]) | IC50 (WEE1; WEE1 15 nM, banded values) | PKMYT1 vs. WEE1 selectivity (WEE1; banded) | Selectivity ratio KYSE30 Gl50 vs. OVCAR3 Gl50 (OVCAR 3 cells) | GI50 (KYSE-30 cells) |
| --- | --- | --- | --- | --- | --- | --- | --- | --- | --- |
| Cc1cc(Nc2ncc(C(=O)Nc3c(C)ccc(O)c3C)s2)n(C2CCCC2)n1 [BAA-231, 2-((1-cyclopentyl-3-methyl-1H-pyrazol-5-yl)amino)-N-(3-hydroxy-2,6-dimethylphenyl)thiazole-5-carboxamide] | 0.05 to 1 µM | > 11 µM | Y (1000-5000 fold) | 0.1 to 1 µM |  |  |  |  |  |
| Cc1ccc(O)c(C)c1NC(=O)c1cnc(Nc2cccc(F)n2)s1 [BAA-406, 2-((6-fluoropyridin-2-yl)amino)-N-(3-hydroxy-2,6-dimethylphenyl)thiazole-5-carboxamide] |  |  |  | < 0.1 µM | < 0.05 µM | 1 to 11 µM | X (100-<1000 fold) |  |  |
| Cc1ccc(O)c(C)c1NC(=O)c1cnc(Nc2nn(CCBr)cc2Cl)s1 [BAA-574, 2-((1-(2-Bromoethyl)-4-chloro-1H-pyrazol-3-yl)amino)-N-(3-hydroxy-2,6-dimethylphenyl)thiazole-5-carboxamide] |  |  |  |  | < 0.05 µM | 1 to 11 µM | W (10-<100 fold) | X (3-20 fold) | 0.5 to 5 µM |
| COC[C@@H]1CCCN1C(=O)Cn1cc(C)c(Nc2ncc(C(=O)Nc3c(C)ccc(O)c3C)s2)n1 [BAA-606, (S)-N-(3-hydroxy-2,6-dimethylphenyl)-2-((1-(2-(2-(methoxymethyl)pyrrolidin-1-yl)-2-oxoethyl)-4-methyl-1H-pyrazol-3-yl)amino)thiazole-5-carboxamide] |  |  |  |  | < 0.05 µM | 1 to 11 µM | X (100-<1000 fold) | Y (>20 fold) | 0.5 to 5 µM |

More lines, main results first:

| IC50 (Human PKMYT1; 15 nM PKMYT1 kinase domain, 500 µM ATP, 60 minutes at 26° C., banded) | IC50 (WEE1; 15 nM WEE1, 60 minutes at 26° C., banded) | PKMYT1 vs. WEE1 selectivity (WEE1; banded, ">N" = at least in this band but could be higher) | IC50 [1] | IC50 (Human PKMYT1; [2]) | IC50 (WEE1; WEE1 15 nM, banded values) | PKMYT1 vs. WEE1 selectivity (WEE1; banded) | Compound | Selectivity ratio KYSE30 Gl50 vs. OVCAR3 Gl50 (OVCAR 3 cells) | GI50 (KYSE-30 cells) |
| --- | --- | --- | --- | --- | --- | --- | --- | --- | --- |
|  |  |  | 0.1 to 1 µM | < 0.05 µM | > 11 µM | Y (1000-5000 fold) | Cc1ccc(O)c(C)c1NC(=O)c1cnc(Nc2ncccc2F)s1 [BAA-411, 2-((3-fluoropyridin-2-yl)amino)-N-(3-hydroxy-2,6-dimethylphenyl)thiazole-5-carboxamide] |  |  |
|  |  |  | 0.1 to 1 µM | < 0.05 µM | > 11 µM | Z (>5000 fold) | Cc1ccc(O)c(C)c1NC(=O)c1cnc(Nc2ncccc2C2CC2)s1 [BAA-412, 2-((3-cyclopropylpyridin-2-yl)amino)-N-(3-hydroxy-2,6-dimethylphenyl)thiazole-5-carboxamide] |  |  |
|  |  |  | 0.1 to 1 µM | < 0.05 µM | > 11 µM | Z (>5000 fold) | Cc1ccc(O)c(C)c1NC(=O)c1cnc(Nc2ncc(F)cc2F)s1 [BAA-413, 2-((3,5-difluoropyridin-2-yl)amino)-N-(3-hydroxy-2,6-dimethylphenyl)thiazole-5-carboxamide] |  |  |
|  |  |  | < 0.1 µM | < 0.05 µM | > 11 µM | X (100-<1000 fold) | Cc1cccnc1Nc1ncc(C(=O)Nc2c(C)ccc(O)c2C)s1 [BAA-415, N-(3-hydroxy-2,6-dimethylphenyl)-2-((3-methylpyridin-2-yl)amino)thiazole-5-carboxamide] |  |  |
|  |  |  | < 0.1 µM | 0.05 to 1 µM | > 11 µM | X (100-<1000 fold) | Cc1ccc(O)c(C)c1NC(=O)c1cnc(Nc2nn(C)c3ccc(C(F)(F)F)cc23)s1 [BAA-454, N-(3-hydroxy-2,6-dimethylphenyl)-2-((1-methyl-5-(trifluoromethyl)-1H-indazol-3-yl)amino)thiazole-5-carboxamide] |  |  |
|  |  |  | 0.1 to 1 µM | < 0.05 µM | > 11 µM | Y (1000-5000 fold) | Cc1cn(CC(F)F)nc1Nc1nnc(C(=O)Nc2c(C)ccc(O)c2C)s1 [BAA-464, 5-((1-(2,2-Difluoroethyl)-4-methyl-1H-pyrazol-3-yl)amino)-N-(3-hydroxy-2,6-dimethylphenyl)-1,3,4-thiadiazole-2-carboxamide] |  |  |
